Test results taken from paper PMC9589981, “High-Resolution Epitope Mapping and Affinity Binding Analysis Comparing a New Anti-Human LAG3 Rabbit Antibody Clone to the Commonly Used Mouse 17B4 Clone” (Antibodies, 2022).

System: mouse 17B4 antibody (binding to LAG3 from HH cell lysate)
Test: ACE (automated capillary electrophoresis) peptide inhibition assay, 17B4
Details: result in words, peptide at 5000 nM and 500 nM
Procedure: For each assay run, HH cell lysate was mixed with 0.1× WES sample buffer reagent, and reconstituted WES 5× Fluorescent Mix reagent followed by denaturation at 95 °C for 3 min and then held on ice followed until use. Denatured sample was added to each of the designated wells of the separation module sampling plate. Dilutions of the stock rabbit SP464 and mouse 17B4 monoclonal antibodies were made to the desired concentrations using the WES detection module Antibody Dilution Buffer 2 reagent. Diluted antibody solutions were added to the designated wells of the separation module sampling plate. The remaining WES assay reagents were finally added to the plate and then processed in the WES instrument using the default running and detection parameters.
HH cell lysate samples were prepared and used as above for antibody titration assays. Rabbit SP464 and mouse 17B4 antibodies were diluted to 4 µg/mL in the WES detection module Antibody Dilution Buffer 2 reagent. The antibody solutions were then diluted 1:1 (vol/vol) with varying concentrations of peptide, or diluent as a no peptide control, for 1 h at RT, and 10 µL of each antibody/peptide solution was added to the designated wells of the separation module sampling plate. Samples were run in duplicates or triplicates. Plates were then processed in the WES instrument using default running and detection parameters.

## PAAAPGHPLA [central ten amino acid fragment within the N-terminal 15 amino acids]
  inhibition of 17B4 binding by immunogen fragment (ACE): inhibited binding
Listed as center sub-domain fragment
  inhibition of 17B4 binding by immunogen fragment (ACE): complete inhibition
